{
  "source": "patent US8936809B2",
  "about": "“Method for treating prostate diseases based on local delivery of active substances” (Lidds AB, priority 2005, dated 2015)",
  "key": {"[1]": {"assay": "Plasma pharmacokinetics and tissue level after controlled release implant into bulbourethral gland of male sheep (Example 2)", "type": "in vivo", "experimental": "The major purpose of the present animal study was to examine the pharmacokinetics, efficacy and safety of the novel local drug delivery system with 2-hydroxyflutamide, a selective antagonist to the androgen receptor (AR). A ceramic based drug delivery product was administered into an androgen dependent tissue (the bulbourethral gland) in male sheep. In total 11 male sheep were divided into two separate groups. One group was given 2-hydroxyflutamide by the local implant delivery system as a single administration into the bulbourethral gland and was monitored during 2 months. Each sheep in this treatment group received the prostate implant by a single dose of 250 mg. The other group only received ceramic formulation without any active drug substance.\nThe implant drug delivery system was inserted locally, via rectum, into the androgen dependent tissue (bulbourethral gland) through sterile needles during rectal ultrasound guidance. The animals were during anaesthesia throughout the insertion procedure. The sterile ceramic based implant had two major components: calcium sulphate (CaSO4-0.5H2O) and 2-hydroxyflutamide. The composition of the formulation was 250 mg 2-hydroxyflutamide+2.25 g calcium sulphate di-hydrate+5.0 g calcium sulphate hemi-hydrate and it was mixed with solution: 3.5 ml of water solution (with 1% acetic acid and 1% methyl cellulose). […] The amount injected into each lobe of the androgen sensitive bulbourethral gland was about 2.0-3.0 ml.\nQuantification of 2-hydroxy-flutamide in plasma samples was done by HPLC-MS. HPLC was performed with a Surveyor HPLC system equipped with a CTC Pal autosampler. The analytical column was a Zorbax Eclipse XDB-18 (2.1 mm×50 mm, particle size 5 μm) connected to a guard column. The calibration curves were constructed by linear regression of the peak area ratio of 2-hydroxy-flutamide and internal standard as a function of 2-hydroxy-flutamide concentrations. The method performance was studied using quality control (QC) samples, which were prepared by spiking blank plasma with 2-hydroxy-flutamide.\nSheep plasma (unknown, QC or calibration sample) at a volume of 100 μL was mixed with 100 μL of internal standard solution (nilutamide at 0.025 μg/mL) and 250 μL of acetonitrile. A subsequent vortex mix was performed for 20 seconds followed by a centrifugation for 10 minutes. […] of the supernatant was transferred to a clean test tube and evaporated to dryness at 50° C. in a gentle stream of nitrogen. The residue was reconstituted in 100 μL aqueous formic acid (0.1%) and transferred to a vial for LC-MS/MS analysis.\nThe formulation was successfully administered in 11 male sheep. Based on the plasma exposure profile the pharmacokinetic variables were calculated with standard methods (Table 4)."}, "dog prostate tissue": {"system": "dog prostate tissue", "assay": "Macroscopic anti-proliferate effect on dog prostate tissue: volume before, weight after, palpation (Example 1)", "type": "in vivo", "design": "key to Palpation: 0 = no effect; + = mild effect; ++ = intermediate; +++ = strong effect", "conditions": "for Weight of prostate tissue (after): termination after day 20", "from_the_text": "After day 20, each dog was terminated with an intravenous dose of a mixture of pentobarbital and potassium. The following organs were surgical removed and frozen: prostate, testis, liver and kidney for the assessment of effect and safety. These organs were carefully examined as a consequence of the local tissue exposure of 2-hydroxy-flutamide and the ceramic-based implant. The macroscopic pharmacological anti-proliferate effect of 2-hydroxy-flutamide was examined as the volume-weight ratio of the dog prostate tissue before and after the local administration of 2-hydroxy-flutamide as a single controlled release pharmaceutical composition."}, "[2]": {"assay": "Plasma pharmacokinetics after local prostate implant in male beagle dogs (Example 3)", "type": "in vivo, dog", "conditions": "for F (bioavailability): beagle dog; for F (bioavailability) / bioavailability: approximated with average i.v. clearance of Example 1; for half-life: read-out: t½ (converted); for bioavailability: iv, read-out: F (bioavailability)", "experimental": "The dog has been selected as the test model because of its proven suitability in this type of study. The study was performed in 12 male beagle dogs from Harlan Winkelmann GmbH, Germany.\nThe sterile controlled release implant was composed of ceramic compounds and 2-hydroxyflutamide. Storage and handling instructions were given. The composition of the formulation of the low and high dose was 250 mg of 2-hydroxyflutamide +2.25 g calcium sulphate di-hydrat +5.0 g calcium sulphate hemi-hydrate and it was mixed with solution: 3.5 ml of water solution (with 1% acetic acid and 1% methyl cellulose).\nThe final formulation work was done during sterile conditions by trained personal at the experimental day. The amount injected into each lobe of the androgen sensitive bulbourethral gland was about 2.0-3.0 ml for the low dose (250 mg) and 4.0-6.0 ml of the high dose (500 mg).\nThe animals were fasted for at least 12 hours prior to the insertion procedure on Day 1. The implant drug delivery system was inserted locally into the prostate tissue, via rectum, through sterile needles during rectal ultrasound guidance. Each animal was under anesthesia during the insertion procedure.\nBlood samples for pharmacokinetic was collected as follows: On Day 1: Pre-insertion and 6 hours after insertion. Blood samples were sampled in the morning on Days 2, 3, 4, 5, 6 and 7. During the rest of the study blood samples were collected once a week.\nBlood samples of approximately 3 ml were drawn from the jugular vein. The blood was sampled into vacutainers containing EDTA as anticoagulant. The blood was placed in ice water until centrifugation (10 min, 1270 G, +4° C.). The plasma was transferred to Nunc cryotubes (Nunc, Denmark) and frozen at −18° C. or below and sent with dry ice to Swedish Veterinary Institute, Uppsala for analysis.\nThe plasma pharmacokinetic variables were calculated using standard pharmacokinetic methods and are given for both implant doses of 250 mg and 500 mg in Tables 6 and 7. The bioavailability (F) was approximated by using the average value for clearance of 2-hydroyflutamide when it was given by an intravenous dose in the dog study presented in Example 1."}, "[3]": {"conditions": "male sheep plasma, 250 mg implant into bulbourethral gland, individual animals"}, "[4]": {"conditions": "beagle dog plasma, local prostate implant 250 mg, individual animals"}, "[5]": {"conditions": "beagle dog plasma, local prostate implant 500 mg, individual animals"}, "[6]": {"conditions": "male, beagle, dog, plasma, 250 mg, beagle dogs, local prostate implant 250 mg, Mean of four animals"}, "[7]": {"conditions": "male, beagle, dog, plasma, 500 mg, beagle dogs, local prostate implant 500 mg, Mean of four animals"}},
  "note": "Several values for one entry are separate records, joined by “and”; a condition that tells them apart may be missing. Equal values may be shown once. Read-outs that look alike come from different tables or passages of the source.",
  "data": [
    {"smiles": "CC(C)(O)C(=O)Nc1ccc([N+](=O)[O-])c(C(F)(F)F)c1", "note": "[2-hydroxy-flutamide]", "values": [
      {"measurement": "AUC", "setting": "[1]; [3]", "value": "3725 ng·h/mL and 3390 ng·h/mL and 3755 ng·h/mL and 1855 ng·h/mL and 4948 ng·h/mL and 4436 ng·h/mL and 4287 ng·h/mL"},
      {"measurement": "Cmax", "setting": "[1]; [3]", "value": "84 ng/mL and 35 ng/mL and 19.8 ng/mL and 16.3 ng/mL and 34 ng/mL and 31 ng/mL and 26 ng/mL"},
      {"measurement": "t½", "setting": "[1]; [3]", "value": "253 h and 117 h and 67 h and 168 h and 119 h and 140 h and 159 h"},
      {"measurement": "Tmax", "setting": "[1]; male, sheep, plasma, 250 mg, male sheep, 250 mg implant into bulbourethral gland, Mean of seven sheep", "value": 9, "unit": "h"},
      {"measurement": "AUC", "setting": "[1]; male, sheep, plasma, 250 mg, male sheep, 250 mg implant into bulbourethral gland, Mean of seven sheep, read-out: AUC", "value": 3770, "unit": "ng·h/mL"},
      {"measurement": "Cmax", "setting": "[1]; male, sheep, plasma, 250 mg, male sheep, 250 mg implant into bulbourethral gland, Mean of seven sheep, read-out: Cmax", "value": 42, "unit": "ng/mL"},
      {"measurement": "half-life", "setting": "[1]; male, sheep, plasma, 250 mg, male sheep, 250 mg implant into bulbourethral gland, Mean of seven sheep, read-out: t½ (converted)", "value": 6.08, "unit": "days"},
      {"measurement": "half-life", "setting": "[1]; male, sheep, plasma, other: local implant into the bulbourethral gland via rectum, 250 mg, male sheep, 250 mg controlled release implant, read-out: elimination half-life (converted)", "value": "~6.08", "unit": "days"},
      {"measurement": "Palpation", "setting": "dog prostate tissue; dog H2, 60 mg local prostate implant", "value": "++"},
      {"measurement": "Weight of prostate tissue (after)", "setting": "dog prostate tissue; dog H2, after local administration of 60 mg", "value": 13, "unit": "g"},
      {"measurement": "volume of prostate tissue (before)", "setting": "dog prostate tissue; dog H2, before local administration of 60 mg", "value": 13.3, "unit": "cm^3"},
      {"measurement": "Palpation", "setting": "dog prostate tissue; dog H3, 30 mg local prostate implant", "value": 0},
      {"measurement": "Weight of prostate tissue (after)", "setting": "dog prostate tissue; dog H3, after local administration of 30 mg", "value": 17, "unit": "g"},
      {"measurement": "volume of prostate tissue (before)", "setting": "dog prostate tissue; dog H3, before local administration of 30 mg", "value": 12.4, "unit": "cm^3"},
      {"measurement": "Palpation", "setting": "dog prostate tissue; dog H4, 120 mg local prostate implant", "value": "+++"},
      {"measurement": "Weight of prostate tissue (after)", "setting": "dog prostate tissue; dog H4, after local administration of 120 mg", "value": 13, "unit": "g"},
      {"measurement": "volume of prostate tissue (before)", "setting": "dog prostate tissue; dog H4, before local administration of 120 mg", "value": 11.3, "unit": "cm^3"},
      {"measurement": "anti-proliferate effect", "setting": "dog prostate tissue; dogs, local prostate implant, three weeks", "value": "clear anti-proliferate effect"},
      {"measurement": "macroscopic effect based on volume (before) and weight (after)", "setting": "dog prostate tissue; two higher doses (60 mg, H2 and 120 mg, H4) in comparison with placebo (H1) and low dose (30 mg, H3)", "value": "resulted in a macroscopic effect"},
      {"measurement": "AUC", "setting": "[2]; [4]", "value": "8701 ng·h/mL and 5446 ng·h/mL and 5921 ng·h/mL and 13237 ng·h/mL"},
      {"measurement": "Cmax", "setting": "[2]; [4]", "value": "97 ng/mL and 58 ng/mL and 85 ng/mL and 131 ng/mL"},
      {"measurement": "Tmax", "setting": "[2]; [4]", "value": 48, "unit": "h"},
      {"measurement": "t½", "setting": "[2]; [4]", "value": "34 h and 39 h and 26 h"},
      {"measurement": "AUC", "setting": "[2]; [5]", "value": "13009 ng·h/mL and 13420 ng·h/mL and 11631 ng·h/mL"},
      {"measurement": "Cmax", "setting": "[2]; [5]", "value": "202 ng/mL and 133 ng/mL"},
      {"measurement": "Tmax", "setting": "[2]; [5]", "value": 48, "unit": "h"},
      {"measurement": "t½", "setting": "[2]; [5]", "value": "57 h and 59 h and 34 h and 28 h"},
      {"measurement": "F (bioavailability)", "setting": "[2]; local prostate implant 250 mg, individual animals", "value": "74% and 46% and 50% and 112%"},
      {"measurement": "F (bioavailability)", "setting": "[2]; local prostate implant 500 mg, individual animals", "value": "86% and 110% and 113% and 98%"},
      {"measurement": "half-life", "setting": "[2]; male, beagle, dog, plasma, 250 mg, beagle dog plasma, local prostate implant 250 mg, individual animals", "value": 1920, "unit": "min"},
      {"measurement": "AUC", "setting": "[2]; male, beagle, dog, plasma, 250 mg, beagle dogs, local prostate implant 250 mg, Mean of four animals, read-out: AUC", "value": 8330, "unit": "ng·h/mL"},
      {"measurement": "Cmax", "setting": "[2]; male, beagle, dog, plasma, 250 mg, beagle dogs, local prostate implant 250 mg, Mean of four animals, read-out: Cmax", "value": 93, "unit": "ng/mL"},
      {"measurement": "Tmax", "setting": "[2]; male, beagle, dog, plasma, 250 mg, beagle dogs, local prostate implant 250 mg, Mean of four animals, read-out: tmax", "value": 17, "unit": "h"},
      {"measurement": "half-life", "setting": "[2]; [6]", "value": 1980, "unit": "min"},
      {"measurement": "AUC", "setting": "[2]; male, beagle, dog, plasma, 500 mg, beagle dog plasma, local prostate implant 500 mg, individual animals, read-out: AUC", "value": 10200, "unit": "ng·h/mL"},
      {"measurement": "Cmax", "setting": "[2]; male, beagle, dog, plasma, 500 mg, beagle dog plasma, local prostate implant 500 mg, individual animals, read-out: Cmax", "value": 102, "unit": "ng/mL"},
      {"measurement": "AUC", "setting": "[2]; male, beagle, dog, plasma, 500 mg, beagle dogs, local prostate implant 500 mg, Mean of four animals, read-out: AUC", "value": 12100, "unit": "ng·h/mL"},
      {"measurement": "Cmax", "setting": "[2]; male, beagle, dog, plasma, 500 mg, beagle dogs, local prostate implant 500 mg, Mean of four animals, read-out: Cmax", "value": 145, "unit": "ng/mL"},
      {"measurement": "Tmax", "setting": "[2]; male, beagle, dog, plasma, 500 mg, beagle dogs, local prostate implant 500 mg, Mean of four animals, read-out: tmax", "value": 27, "unit": "h"},
      {"measurement": "half-life", "setting": "[2]; [7]", "value": 2700, "unit": "min"},
      {"measurement": "bioavailability", "setting": "[2]; [6]", "value": 71, "unit": "%"},
      {"measurement": "bioavailability", "setting": "[2]; [7]", "value": 102, "unit": "%"}
    ]}
  ]
}
